Article PMC4120060 (Psychoneuroendocrinology, 2014)

Tests used:
[1] = in vivo; cited from earlier work
[2] = Plasma OT concentration after OT administration; type: in vivo, rhesus monkeys (Macaca mulatta)
[3] = in vivo; cited from earlier work; remark: listed apart in the source
[4] = Lumbar CSF OT concentration after OT administration; conditions: N=6
[5] = ref Mens et al., 1983; cited from earlier work
[6] = humans; four-fold lower intramuscular dose; ref Landgraf, 1985; cited from earlier work

| Molecule | CSF concentration of the peptide after nasal delivery [1] | CSF OT concentrations after IN-OT spray versus placebo/saline [1] | increase in plasma OT after IV-OT, 15 min ([2]; IV bolus 48 IU Syntocinon, 15 min after administration, N=6, RIA) | increase in plasma OT after IV-OT, 60 min ([2]; IV bolus 48 IU Syntocinon, 60 min after administration, N=6, RIA) | plasma OT above baseline after IV-OT, 120 min ([2]; IV bolus 48 IU Syntocinon, 120 min after administration, N=6, RIA) [times] | plasma OT after IN-OT versus placebo ([2]; intranasal spray 24 IU Syntocinon vs placebo, 60 and 120 min, N=6) | increase in plasma OT over baseline after IN-OT ([2]; intranasal spray 24 IU Syntocinon, 60 and 120 min, N=6, RIA) [fold] | passive diffusion of peptide from the plasma to the CSF [3] | lumbar CSF OT after IV-OT ([4]; IV 48 IU Syntocinon vs placebo, 0, 60, 120 min) | lumbar CSF OT after IN-OT ([4]; intranasal spray 24 IU Syntocinon vs placebo, 0, 60, 120 min) | half-life of OT in the blood [5] | plasma OT concentration, intramuscular relative to nasal administration [6] [fold] |
| --- | --- | --- | --- | --- | --- | --- | --- | --- | --- | --- | --- | --- |
| α-melanocyte stimulating hormone | increased concentrations in cerebrospinal fluid (CSF) over baseline levels |  |  |  |  |  |  |  |  |  |  |  |
| CC[C@H](C)[C@@H]1NC(=O)[C@H](Cc2ccc(O)cc2)NC(=O)[C@@H](N)CSSC[C@@H](C(=O)N2CCC[C@H]2C(=O)N[C@@H](CC(C)C)C(=O)NCC(N)=O)NC(=O)[C@H](CC(N)=O)NC(=O)[C@H](CCC(N)=O)NC1=O [OT, oxytocin] |  | higher | thousand fold increase | hundred fold increase | 100 | significantly increased plasma levels of OT | 100 | ~ 1% | no impact on lumbar CSF concentrations | No significant effect | approximately 2 minutes | 10 |
